Test results reported in patent US9493460B2, “Diimide compounds” (UCL BUSINESS PLC, priority 2013, dated 2016).
Like-named read-outs stand apart in the source and are kept apart here.

Columns and labels:
[1] = system: human telomeric G-quadruplex DNA (F21T); assay: FRET melting assay, human telomeric quadruplex; assay type: binding; conditions: for selectivity for quadruplex over duplex DNA (in words): compared to the n=3 compounds; for change in melting temperature F21T 1 uM: 1 uM ligand; for change in melting temperature F21T 2 uM: 2 uM ligand
Excerpt: (§1) The ability of the naphthalene diimide compounds to stabilize DNA sequences was investigated using a fluorescence resonance energy transfer (FRET) assay modified to be used as a high-throughput screen in a 96-well format. Several quadruplex sequences were studied (the human telomeric G-quadruplex DNA sequence 5′-FAM-d(GGG[TTAGGG]3)-TAMRA-3′ and the duplex sequence 5′-FAM-dTATAGCTATA-HEG-TATAGCTATA-TAMRA-3′ (HEG linker: [(—CH2—CH2—O—)6])), as well as two overlapping sequences from the HSP90 promoter region (HSP90a and HSP90b):
(§2) The labelled oligonucleotides have attached to them the donor fluorophore FAM: 6-carboxyfluorescein and the acceptor fluorophore TAMRA: 6-carboxytetramethylrhodamine. The FRET probe sequences were diluted from stock to the correct concentration (400 nM) in a 60 mM potassium cacodylate buffer (pH 7.4) and then annealed by heating to 85° C. for 10 min, followed by cooling to room temperature in the heating block. The compound was stored as a 10 mM stock solution in DMSO; final solutions (at 2×concentration) were prepared using 10 mM HCl in the initial 1:10 dilution, after which 60 mM potassium cacodylate buffer (pH 7.4) was used in all subsequent steps. The maximum HCl concentration in the reaction volume (at a ligand concentration of 20 μM) is thus 200 μM, well within the range of the buffer used. Relevant controls were also performed to check for interference with the assay. 96-Well plates (MJ Research, Waltham, Mass.) were prepared by aliquoting 50 μl of the annealed DNA into each well, followed by 50 μl of the compound solutions. Measurements were made on a DNA Engine Opticon (MJ Research) with excitation at 450-495 nm and detection at 515-545 nm. Fluorescence readings were taken at intervals of 0.5° C. in the range 30-100° C., with a constant temperature being maintained for 30 s prior to each reading to ensure a stable value. Final analysis of the data was carried out using a script written in the program Origin 7.0 (OriginLab Corp., Northampton, Mass.). The advanced curve-fitting function in Origin 7.0 was used for calculation of ΔTm values. All determinations were performed in triplicate or better. Esds in ΔTm are ±0.1° C.
The ability of compounds 3a-h to stabilize a human telomeric quadruplex was assessed by a high-throughput FRET (Fluorescence Resonance Energy Transfer) melting technique. […] None of the furan tetrahydrofuran, pyranose or acyclic ether compounds has any effect on quadruplex or duplex stability.
(§3) The T-loop sequence represents duplex DNA.

[2] = system: RCC4 (renal) cells; assay: SRB growth inhibition assay, 96 hr exposure, RCC4; assay type: cell-based, human
Description: (§4) Human cancer cell lines, MCF7 (breast), A549 (lung), Mia-PaCa2, PANC1 and HPAC (pancreatic), RCC4 and 786-0 renal, and the somatic human cell line WI-38 (lung fibroblast) were purchased from ATCC. Cell lines were maintained in appropriate medium supplemented with 10% foetal bovine serum (Invitrogen, UK), 2 mM L-glutamine (Invitrogen, Netherlands), and other components as specified by the suppliers. Cell lines were maintained at 37° C., 5% CO2 and routinely passaged. Drugs were dissolved in DMSO and filtered through 0.22 μm pore-size filter units before addition to cell line appropriate media. Cellular growth inhibition was measured using the sulforhodamine B (SRB) assay in 96 well plates as described previously.^1,2 Fifty percent inhibitory concentrations (IC50) were determined by taking the mean absorbance at 540 nm for each drug concentration expressed as a percentage of the absorbance of untreated control wells.
(§5) The anti-proliferative activity of the group of nine ND derivatives was assessed using the SRB assay following 96 h exposure to 2-fold serial dilutions of each compound (Table 2) in a panel of cancer cell lines together with a normal fibroblast line. […] In contrast the morpholine compounds all show sub-μM anti-proliferative activity in at least some of the cancer cell lines used and the two compounds 3d, 3h with n=3 —(CH2)n— linkers to the morpholine groups, show particularly potent activity in the Mia-PaCa2 and PANC1 pancreatic carcinoma and A549 lung adenocarcinoma cell lines (IC50 values of 10-20 nM).
(§6) Next a series of structural isomers were tested.

[3] = system: HSP90a promoter quadruplex sequence; assay: FRET melting assay, Hsp90A quadruplex; assay type: binding; conditions: for change in melting temperature Hsp90A 1 uM: 1 uM ligand; for change in melting temperature Hsp90A 2 uM: 2 uM ligand
Excerpt: as §1
as §2, with “±0.1° C. […]” for “±0.1° C.”

[4] = system: A549 (lung) cells; assay: SRB growth inhibition assay, 96 hr exposure, A549; assay type: cell-based, human
Description: as §4, §5, §6

[5] = system: MiaPaCa2 (pancreatic) cells; assay: SRB growth inhibition assay, MiaPaCa2; assay type: cell-based, human; conditions: SRB assay, 96 hr exposure
Description: as §4, §5
Dose-response curves were used to guide the choice of compound concentration and time-points for the array experiments (FIG. 2a). […] To explore this response continuum the transcriptional signature of cells exposed for 24 h to 20 nM, 40 nM, 80 nM concentrations of 3d, or solvent alone as control, was analysed as described in Materials and Methods.
as §6

[6] = system: 786-O (renal) cells; assay: SRB growth inhibition assay, 96 hr exposure, 786-O; assay type: cell-based, human; conditions: SRB assay, 96 hr exposure
Description: as §4, §5, §6

[7] = system: WI38 normal human fibroblast cells; assay: SRB growth inhibition assay, 96 hr exposure, WI38; assay type: cell-based
Description: as §4
as §5, with “nM). […]” for “nM).”

[8] = system: MCF-7 (breast) cells; assay: SRB growth inhibition assay, 96 hr exposure, MCF-7; assay type: cell-based, human
Description: as §4, §5, §6

[9] = system: duplex DNA (T-loop); assay: FRET melting assay, duplex DNA; assay type: binding; conditions: for change in melting temperature Tloop 1 uM: 1 uM ligand; for change in melting temperature Tloop 2 uM: 2 uM ligand
Excerpt: as §1, §2, §3

[10] = system: HSP90b promoter quadruplex sequence; assay: FRET melting assay, Hsp90B quadruplex; assay type: binding; conditions: for change in melting temperature Hsp90B 1 uM: 1 uM ligand; for change in melting temperature Hsp90B 2 uM: 2 uM ligand
Excerpt: as §1
as §2, with “±0.1° C. […]” for “±0.1° C.”

[11] = system: Panc1 (pancreatic) cells; assay: SRB growth inhibition assay, 96 hr exposure, Panc1; assay type: cell-based, human; conditions: 96 hr exposure
Description: as §4, §5, §6

[12] = Homo sapiens, A549, 96 hr exposure

SMILES: CN1CCN(CCNc2cc3c4c(c(NCCN5CCN(C)CC5)cc5c4c2C(=O)N(CCN2CCOCC2)C5=O)C(=O)N(CCN2CCOCC2)C3=O)CC1 [Compound 3g, 4,9-bis((2-(4-methylpiperazin-1-yl)ethyl)amino)-2,7-bis(2-morpholinoethyl)benzo[lmn][3,8]phenanthroline-1,3,6,8(2H,7H)-tetraone]
- selectivity for quadruplex over duplex DNA (in words) [1]: superior selectivity for quadruplex over duplex DNA

SMILES: CN1CCN(CCCNc2cc3c4c(c(NCCCN5CCN(C)CC5)cc5c4c2C(=O)N(CC2CCOCC2)C5=O)C(=O)N(CC2CCOCC2)C3=O)CC1 [MM33]
- IC50 ([2]; Homo sapiens, RCC4): 8.38 ± 0.5 µM
- change in melting temperature Hsp90A 1 uM [3]: <2
- change in melting temperature Hsp90A 2 uM [3]: <2
- IC50 [4, 12]: 2.92 ± 0.01 µM
- IC50 ([5]; Homo sapiens, MIA PaCa-2): 2.5 ± 0.01 µM
- IC50 ([6]; Homo sapiens, 786-0): 1.2 ± 0.03 µM
- IC50 ([7]; Homo sapiens, WI-38): 12.65 ± 0.11 µM
- change in melting temperature F21T 1 uM [1]: <2
- change in melting temperature F21T 2 uM [1]: <2
- IC50 ([8]; Homo sapiens, MCF7): 3.12 ± 0.13 µM
- change in melting temperature Tloop 1 uM [9]: 0
- change in melting temperature Tloop 2 uM [9]: 0
- change in melting temperature Hsp90B 1 uM [10]: <2
- change in melting temperature Hsp90B 2 uM [10]: <2

SMILES: CN1CCN(CCCN2C(=O)c3cc(NCC4CCCO4)c4c5c(cc(NCC6CCCO6)c(c35)C2=O)C(=O)N(CCCN2CCN(C)CC2)C4=O)CC1 (racemic) [SKM038]
- IC50 [2]: 3 ± 0.17 µM
- change in melting temperature Hsp90A 1 uM [3]: 21
- change in melting temperature Hsp90A 2 uM [3]: 23
- IC50 ([4]; 96 hr exposure): 0.16 ± 0.002 µM
- IC50 [11]: 1.5 ± 0.17 µM
- IC50 [5]: 0.095 ± 0.003 µM
- IC50 [6]: 0.39 ± 0.02 µM
- IC50 [7]: 2.3 ± 0.08 µM
- change in melting temperature F21T 1 uM [1]: <2
- change in melting temperature F21T 2 uM [1]: 15
- IC50 [8]: 0.56 ± 0.034 µM
- change in melting temperature Tloop 1 uM [9]: 0
- change in melting temperature Tloop 2 uM [9]: 0
- change in melting temperature Hsp90B 1 uM [10]: 13
- change in melting temperature Hsp90B 2 uM [10]: 17

SMILES: CN1CCN(CCCNc2cc3c4c(c(NCCCN5CCN(C)CC5)cc5c4c2C(=O)N(CCN2CCOCC2)C5=O)C(=O)N(CCN2CCOCC2)C3=O)CC1 [MM45]
- IC50 ([2]; Homo sapiens, RCC4): 1.75 ± 0.18 µM
- change in melting temperature Hsp90A 1 uM [3]: 34
- change in melting temperature Hsp90A 2 uM [3]: 36
- IC50 [4, 12]: 1.55 ± 0.02 µM
- IC50 ([5]; Homo sapiens, MIA PaCa-2): 0.04 ± 0.01 µM
- IC50 ([6]; Homo sapiens, 786-0): 0.63 ± 0.06 µM
- IC50 ([7]; Homo sapiens, WI-38): 0.61 ± 0.02 µM
- change in melting temperature F21T 1 uM [1]: 27
- change in melting temperature F21T 2 uM [1]: 31
- IC50 ([8]; Homo sapiens, MCF7): 0.17 ± 0.01 µM
- change in melting temperature Tloop 1 uM [9]: 0
- change in melting temperature Tloop 2 uM [9]: 1
- change in melting temperature Hsp90B 1 uM [10]: 29
- change in melting temperature Hsp90B 2 uM [10]: 34

SMILES: CN1CCN(CCCNc2cc3c4c(c(NCCCN5CCN(C)CC5)cc5c4c2C(=O)N(CC2CCCO2)C5=O)C(=O)N(CC2CCCO2)C3=O)CC1 (centres unmarked) [MM10]
- IC50 ([2]; Homo sapiens, RCC4): > 10 µM
- change in melting temperature Hsp90A 1 uM [3]: 27
- change in melting temperature Hsp90A 2 uM [3]: 30
- IC50 [4, 12]: 5.57 ± 0.87 µM
- IC50 ([5]; Homo sapiens, MIA PaCa-2): 5.65 ± 0.93 µM
- IC50 ([6]; Homo sapiens, 786-0): > 10 µM
- IC50 ([7]; Homo sapiens, WI-38): > 10 µM
- change in melting temperature F21T 1 uM [1]: 23
- change in melting temperature F21T 2 uM [1]: 26
- IC50 ([8]; Homo sapiens, MCF7): > 10 µM
- change in melting temperature Tloop 1 uM [9]: 0
- change in melting temperature Tloop 2 uM [9]: 0
- change in melting temperature Hsp90B 1 uM [10]: 21
- change in melting temperature Hsp90B 2 uM [10]: 28

SMILES: CN1CCN(CCCNc2cc3c4c(c(NCCCN5CCN(C)CC5)cc5c4c2C(=O)N(CCN2CCOCC2)C5=O)C(=O)N(CCN2CCOCC2)C3=O)CC1 [Compound 3f, 4,9-bis((3-(4-methylpiperazin-1-yl)propyl)amino)-2,7-bis(2-morpholinoethyl)benzo[lmn][3,8]phenanthroline-1,3,6,8(2H,7H)-tetraone]
- selectivity for quadruplex over duplex DNA (in words) [1]: superior selectivity for quadruplex over duplex DNA

SMILES: CN1CCN(CCNc2cc3c4c(c(NCCN5CCN(C)CC5)cc5c4c2C(=O)N(CCCN2CCOCC2)C5=O)C(=O)N(CCCN2CCOCC2)C3=O)CC1 [MM47]
- IC50 ([2]; Homo sapiens, RCC4): 0.28 ± 0.06 µM
- change in melting temperature Hsp90A 1 uM [3]: 32
- change in melting temperature Hsp90A 2 uM [3]: 36
- IC50 [4, 12]: 0.023 ± 0.006 µM
- IC50 ([5]; Homo sapiens, MIA PaCa-2): 0.01 ± 0.01 µM
- IC50 ([7]; Homo sapiens, WI-38): 2.46 ± 0.02 µM
- change in melting temperature F21T 1 uM [1]: 28
- change in melting temperature F21T 2 uM [1]: 33
- IC50 ([8]; Homo sapiens, MCF7): 0.03 ± 0.01 µM
- change in melting temperature Tloop 1 uM [9]: 8
- change in melting temperature Tloop 2 uM [9]: 12
- change in melting temperature Hsp90B 1 uM [10]: 31
- change in melting temperature Hsp90B 2 uM [10]: 34

SMILES: COCCCN1C(=O)c2cc(NCCCN3CCN(C)CC3)c3c4c(cc(NCCCN5CCN(C)CC5)c(c24)C1=O)C(=O)N(CCCOC)C3=O [MM43]
- IC50 ([2]; Homo sapiens, RCC4): 10.5 ± 0.14 µM
- change in melting temperature Hsp90A 1 uM [3]: 29
- change in melting temperature Hsp90A 2 uM [3]: 32
- IC50 [4, 12]: 2.54 ± 0.01 µM
- IC50 ([5]; Homo sapiens, MIA PaCa-2): 2.79 ± 0.09 µM
- IC50 ([6]; Homo sapiens, 786-0): 7.17 ± 0.41 µM
- IC50 ([7]; Homo sapiens, WI-38): 3.32 ± 0.5 µM
- change in melting temperature F21T 1 uM [1]: <2
- change in melting temperature F21T 2 uM [1]: 22
- IC50 ([8]; Homo sapiens, MCF7): 5.62 ± 0.15 µM
- change in melting temperature Tloop 1 uM [9]: 0
- change in melting temperature Tloop 2 uM [9]: 0
- change in melting temperature Hsp90B 1 uM [10]: 24
- change in melting temperature Hsp90B 2 uM [10]: 29
